In ChEMBL document CHEMBL1201862, “PubChem BioAssay data set” (2004):
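A five-concentration, 48-hour dose response in 96-well plates underlies each endpoint, interpolated linearly between surrounding concentrations. GI50: concentration for 50% inhibition of growth.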 The source made the active and inactive calls. Rule as the data show it: active = GI50 up to about 1.1 µM and inactive = higher.

Legend:
Test in all cases: inhibition of tumour cell growth, NCI panel, 48 h
RPMI-8226 = tested on: RPMI-8226
786-0 = tested on: 786-0
M14 = tested on: M14
SNB-19 = tested on: SNB-19
COLO 205 = tested on: COLO 205
SN12C = tested on: SN12C
OVCAR-8 = tested on: OVCAR-8
HCT-15 = tested on: HCT-15
U-251 = tested on: U-251
MDA-N = tested on: MDA-N
OVCAR-4 = tested on: OVCAR-4
ACHN = tested on: ACHN
MDA-MB-435 = tested on: MDA-MB-435
MDA-MB-231 = tested on: MDA-MB-231
LOX IMVI = tested on: LOX IMVI
Malme-3M = tested on: Malme-3M
CCRF-CEM = tested on: CCRF-CEM
DU-145 = tested on: DU-145
SR = tested on: SR

| SMILES | GI50 (RPMI-8226) | GI50 (786-0) | GI50 (M14) | GI50 (SNB-19) | GI50 (COLO 205) | GI50 (SN12C) | GI50 (OVCAR-8) | GI50 (HCT-15) | GI50 (U-251) | GI50 (MDA-N) | GI50 (OVCAR-4) | GI50 (ACHN) | GI50 (MDA-MB-435) | GI50 (MDA-MB-231) | GI50 (LOX IMVI) | GI50 (Malme-3M) | GI50 (CCRF-CEM) | GI50 (DU-145) | GI50 (SR) |
| --- | --- | --- | --- | --- | --- | --- | --- | --- | --- | --- | --- | --- | --- | --- | --- | --- | --- | --- | --- |
| O=C(Nn1c(-c2ccccc2)nc2ccccc2c1=O)c1ccccc1O | 51.5 µM (inactive) | 65.2 µM (inactive) | 51.1 µM (inactive) | 45 µM (inactive) | 67.3 µM (inactive) | 37.2 µM (inactive) | 38.5 µM (inactive) | 29.4 µM | 44.5 µM (inactive) | 66.2 µM (inactive) | 30.7 µM (inactive) | 37.8 µM (inactive) | 49.4 µM (inactive) | 53.5 µM (inactive) | 48.6 µM (inactive) | 25.7 µM (inactive) | 25.2 µM (inactive) | 49.1 µM (inactive) | 32.8 µM (inactive) |
| O=C1Nc2c(Cl)cc(Cl)cc2/C1=N/Nc1ccccc1[N+](=O)[O-] | > 100 µM (inactive) | 5.75 µM (inactive) | 39.3 µM (inactive) | 23.7 µM (inactive) | 92.5 µM (inactive) | 85.9 µM (inactive) | 30.3 µM (inactive) | 72.1 µM | 6.85 µM (inactive) | > 100 µM (inactive) | 29 µM (inactive) | 11.6 µM (inactive) | > 100 µM (inactive) | 18.3 µM (inactive) | 84.5 µM (inactive) | 29.2 µM (inactive) | 46 µM (inactive) | > 100 µM (inactive) | 5.45 µM (inactive) |
| O=C1c2sc(-c3ccc(Cl)cc3)cc2-n2cccc21 | > 100 µM (inactive) | > 100 µM (inactive) | > 100 µM (inactive) | > 100 µM (inactive) | > 100 µM (inactive) | > 100 µM (inactive) | > 100 µM (inactive) | > 100 µM | > 100 µM (inactive) | > 100 µM (inactive) | > 100 µM (inactive) | > 100 µM (inactive) | > 100 µM (inactive) | > 100 µM (inactive) | > 100 µM (inactive) | > 100 µM (inactive) | > 100 µM (inactive) | > 100 µM (inactive) | > 100 µM (inactive) |
| CCOc1cc2c(NCCCN(CCO)CCO)ncnc2c(OCC)c1OCC | > 100 µM (inactive) | > 100 µM (inactive) | > 83.2 µM (inactive) | > 100 µM (inactive) | 69.3 µM (inactive) | > 100 µM (inactive) | > 100 µM (inactive) | > 100 µM | > 100 µM (inactive) | > 100 µM (inactive) | > 88.5 µM (inactive) | > 100 µM (inactive) | > 100 µM (inactive) | > 93.1 µM (inactive) | > 100 µM (inactive) | 55.6 µM (inactive) | > 100 µM (inactive) | > 100 µM (inactive) | > 100 µM (inactive) |
| CN1CCCC(C(=O)OCC(=O)C2(O)CCC3C4CCC5=CC(=O)CCC5(C)C4C(O)CC32C)C1 (configuration not stated) | 4.23 µM (inactive) | 4.2 µM (inactive) | 23.2 µM (inactive) | 8.05 µM (inactive) | 18 µM (inactive) | 8.73 µM (inactive) | 15 µM (inactive) | 18.7 µM | 4.29 µM (inactive) | 10.7 µM (inactive) | 13.4 µM (inactive) | 17.9 µM (inactive) | 12.6 µM (inactive) | 4.32 µM (inactive) | 10.9 µM (inactive) | 17 µM (inactive) | 4.9 µM (inactive) | 18.7 µM (inactive) | 1.96 µM (inactive) |
| O=C(NCCCCCCCCCCCCNC(=O)Nc1cccc2ccccc12)Nc1cccc2ccccc12 | 19.5 µM (inactive) | 13.5 µM (inactive) | 20.1 µM (inactive) | 15.1 µM (inactive) | 20.6 µM (inactive) | 17.6 µM (inactive) | 22.9 µM (inactive) | 18.4 µM | 14.3 µM (inactive) | 17.4 µM (inactive) | 11.2 µM (inactive) | 14 µM (inactive) | 17.9 µM (inactive) | 20.7 µM (inactive) | 18 µM (inactive) | 15.3 µM (inactive) | 16.6 µM (inactive) | 24.3 µM (inactive) | 16.7 µM (inactive) |
| C=CCC1(C)CCCN(Cc2ccccc2)C1=O (configuration not stated) | > 10 µM (inactive) | > 10 µM (inactive) | > 10 µM (inactive) | > 10 µM (inactive) | > 10 µM (inactive) | > 10 µM (inactive) | > 10 µM (inactive) | > 10 µM | > 10 µM (inactive) | > 10 µM (inactive) | > 10 µM (inactive) | > 10 µM (inactive) | > 10 µM (inactive) | > 10 µM (inactive) | > 10 µM (inactive) | 0.0161 µM (active) | > 10 µM (inactive) | > 10 µM (inactive) | > 10 µM (inactive) |
| CCCCC/C=C\C=C1\C(=O)C=C[C@@H]1C/C=C\CCCC(=O)O | 1.38 µM (inactive) | 3.21 µM (inactive) | 6.85 µM (inactive) | 4.51 µM (inactive) | 2.96 µM (inactive) | 2 µM (inactive) | 1.49 µM (inactive) | 5.24 µM | 2.48 µM (inactive) | 1.96 µM (inactive) | 1.53 µM (inactive) | 2.72 µM (inactive) | 2.42 µM (inactive) | 9.2 µM (inactive) | 2.27 µM (inactive) | 10.2 µM (inactive) | 0.205 µM (active) | 6.92 µM (inactive) | 1.96 µM (inactive) |
